Data taken from patent publication US10131652B2, “Pyrimidinyloxy benzene derivatives as herbicides” (E. I. DU PONT DE NEMOURS AND COMPANY, priority 2014, dated 2018).
Read-outs that look alike come from different tables or passages of the source.

How the values were obtained:
Type in all cases: in vivo
[1] = tested on: large (Lg) crabgrass (Digitaria sanguinalis); assay: Test B pre-/postemergence plant response; conditions: Digitaria sanguinalis, 240 h, read-out: Plant response rating, Crabgrass, Large; for pest or weed control at 125 g/ha: 125 g ai/ha; for pest or weed control at 500 g/ha: 500 g ai/ha
Procedure, shortened: (§1)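 Visual injury rating, 0 (no effect) to 100 (complete control), vs untreated controls after ~10 d greenhouse. Pre: directed soil spray after planting in loam/sand. Post: plants 2–10 cm, 1–2 leaf stage. Compound in non-phytotoxic solvent plus surfactant.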

[2] = tested on: velvetleaf (Abutilon theophrasti); assay: Test B pre-/postemergence plant response; conditions: Abutilon theophrasti, 240 h, read-out: Plant response rating, Velvetleaf; for pest or weed control at 125 g/ha: 125 g ai/ha; for pest or weed control at 500 g/ha: 500 g ai/ha
Procedure, shortened: as §1

[3] = tested on: morningglory (Ipomoea spp.); assay: Test B pre-/postemergence plant response; conditions: Ipomoea, 240 h, read-out: Plant response rating, Morningglory; for pest or weed control at 125 g/ha: 125 g ai/ha; for pest or weed control at 500 g/ha: 500 g ai/ha
Procedure, shortened: as §1

[4] = tested on: galium (catchweed bedstraw, Galium aparine); assay: Test B postemergence plant response
Procedure, shortened: (§2)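 Plants grown in pots of loam soil–sand blend were sprayed postemergence with formulated test chemicals at 2 to 10 cm height, one- to two-leaf stage. After about 10 days in a greenhouse, injury was visually rated against untreated controls on a 0 to 100 scale (0 no effect, 100 complete control).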

[5] = tested on: blackgrass (Alopecurus myosuroides); assay: Test B postemergence plant response
Procedure, shortened: as §2

[6] = post-emergence, postemergence, 0 to 100 scale, 0 no effect, 100 complete control
[7] = post-emergence, Postemergence, 0 to 100 scale (0 no effect, 100 complete control)
[8] = pre-emergence, Preemergence, 0 to 100 scale where 0 is no effect and 100 is complete control
[9] = 125 g ai/ha, postemergence, 0 to 100 scale, 0 no effect, 100 complete control
[10] = Postemergence, 500 g ai/ha, 0 to 100 scale (0 no effect, 100 complete control)
[11] = pre-emergence, Preemergence, 0 to 100 scale (0 no effect, 100 complete control)

Row | SMILES | pest or weed control at 125 g/ha [1, 6] [%] | pest or weed control at 500 g/ha [1, 7] [%] | pest or weed control at 125 g/ha [1, 8] [%] | pest or weed control at 500 g/ha [1, 8] [%] | pest or weed control at 125 g/ha [2, 6] [%] | pest or weed control at 500 g/ha [2, 7] [%] | pest or weed control at 125 g/ha [2, 8] [%] | pest or weed control at 500 g/ha [2, 8] [%] | pest or weed control at 125 g/ha [3, 6] [%] | pest or weed control at 500 g/ha [3, 7] [%] | pest or weed control at 125 g/ha [3, 8] [%] | pest or weed control at 500 g/ha [3, 8] [%] | Plant response rating, Galium [4, 9] | Plant response rating, Galium [4, 10] | Plant response rating, Blackgrass [5, 9] | Plant response rating, Blackgrass [5, 10] | pest or weed control at 500 g/ha [1, 11] [%] | pest or weed control at 500 g/ha [2, 11] [%] | pest or weed control at 500 g/ha [3, 11] [%]
1 | FC(F)(F)Oc1ccc(-c2ccccc2Oc2ncc(Cl)cn2)cc1 [Compound 42, 5-chloro-2-[[4′-(trifluoromethoxy)[1,1′-biphenyl]-2-yl]oxy]pyrimidine] | 30 | 50 | 50 | 90 | 100 | 100 | 50 | 70 | 20 | 60 | 0 | 0 |  |  |  |  |  |  | 
2 | N#Cc1cccc(Oc2ncc(Cl)cn2)c1-c1cc(C(F)(F)F)ccn1 [Compound 158, 5-chloro-2-[3-cyano-2-[4-(trifluoromethyl)-2-pyridinyl]phenoxy]pyrimidine] |  |  |  |  |  |  |  |  |  |  |  |  | 30 | 100 | 30 | 90 |  |  | 
3 | FC(F)(F)c1ccnc(-c2ccccc2Oc2ncc(Cl)cn2)c1 [Compound 25, 5-chloro-2-[2-[4-(trifluoromethyl)-2-pyridinyl]phenoxy]pyrimidine] | 10 | 50 | 50 | 100 | 20 | 80 | 10 | 100 | 10 | 70 | 0 | 10 |  |  |  |  |  |  | 
4 | FC(F)(F)c1nccc(-c2ccccc2Oc2ncc(Br)cn2)n1 [Compound 21, 4-[2-[(5-bromo-2-pyrimidinyl)oxy]phenyl]-2-(trifluoromethyl)pyrimidine] | 0 | 30 | 60 |  | 20 | 40 | 0 |  | 20 | 90 | 0 |  |  |  |  |  | 100 | 20 | 0
5 | FCc1cc(-c2ccccc2Oc2ncc(Cl)cn2)no1 [Compound 32, 5-chloro-2-[2-[5-(fluoromethyl)-3-isoxazolyl]phenoxy]pyrimidine] | 60 | 90 | 100 | 100 | 90 | 100 | 90 | 100 | 70 | 90 | 0 | 30 |  |  |  |  |  |  | 
